Literature values as cited in US20090263467A1, “COMBINATION DRUG THERAPY USING ORALLY DISSOLVING FILM OR ORALLY DISINTEGRATING TABLET DOSAGE FORMS TO TREAT DRY MOUTH AILMENTS” (priority 2008, published 2009).

Experiments:
[1] = neutral pH

half-life: 45.6 min | permeability [1]: higher
Compound: CC[C@@H]1C(=O)OC[C@@H]1Cc1cncn1C [Pilocarpine]
